The record followed here is ChEMBL document CHEMBL4414548 (J Med Chem, 2019).

Active and inactive are the calls of the source. The calls are words filed in the database; no cut-off is given here.

The target of series [1] is T1, Non-receptor tyrosine-protein kinase TYK2 (Homo sapiens, UniProt P29597). Kind of series: Inhibition of fluorescein-labeled kinase tracer binding to His-TVMV-fused TYK2 JH2 domain (575 to 869 residues) (unknown origin) measured after 90 mins by HTRF assay.
In series [2] the target is T1, Non-receptor tyrosine-protein kinase TYK2. The series is described as follows: Inhibition of TYK2 JH1 domain (unknown origin).
Series [3] deals with Tyrosine-protein kinase JAK1 (Homo sapiens, UniProt P23458). Kind of series: Inhibition of JAK1 JH1 domain (unknown origin).
Series [4] concerns the target Tyrosine-protein kinase JAK2 (Homo sapiens, UniProt O60674). The series is described as follows: Inhibition of JAK2 JH1 domain (unknown origin).
The target of series [5] is JAK1/TYK2 (Homo sapiens, UniProt P23458+P29597). Kind of series: Inhibition of TYK2/JAK1 in IFNalpha-stimulated human Kit225 cells by steady-glo luciferase assay.
Series [6] concerns the target T1, Non-receptor tyrosine-protein kinase TYK2. Kind of series: Inhibition of TYK2 JH2 domain in human whole blood assessed as inhibition of IFNalpha-induced STAT5 phosphorylation preincubated for 1 hr followed by IFNalpha stimulation and measured after 15 mins by fluorescence assay. It is filed as tissue-based.
Series [7] is described as follows: Permeability across apical to basolateral side in human Caco2 cells. Type of series: ADME, cell-based. As to conditions: Caco-2, read-out: permeability.
Series [8] can be described thus: Efflux ratio of permeability in human Caco2. Type of series: ADME, cell-based. To be noted: Caco-2.
The target of series [9] is Non-receptor tyrosine-protein kinase TYK2 (Mus musculus, UniProt Q9R117). The series is described as follows: Inhibition of TYK2 JH2 domain in mouse whole blood assessed as inhibition of IFNalpha-induced STAT1 phosphorylation preincubated for 1 hr followed by IFNalpha stimulation and measured after 15 mins by fluorescence assay. Type of series: tissue-based.
Series [10] is described as follows: Half life in human liver microsomes. It is filed as ADME, Microsome.
Series [11] in a line: Half life in rat liver microsomes. It is filed as ADME, Microsome.
Series [12] is described as follows: Half life in mouse liver microsomes. Type of series: ADME, Microsome.
A short description of series [13]: Half life in cynomolgus monkey liver microsomes. Type of series: ADME, Macaca fascicularis, Microsome.
A short description of series [14]: Half life in dog liver microsomes. It is filed as ADME, Canis lupus familiaris, Microsome.
Series [15] is described as follows: Partition coefficient, log P of compound by HPLC analysis. It is filed as physicochemical. As to conditions: octanol/water.
A short description of series [16]: Cmax in mouse at 10 mg/kg, po after 7 hrs. Type of series: ADME, organism-based. Details: dose 10 mg/kg, route oral. To be noted: in vivo.
The nature of series [17]: AUClast in mouse at 10 mg/kg, po after 7 hrs. Details: time < 7 hr, dose 10 mg/kg, route oral. Type of series: ADME, organism-based. As to conditions: in vivo.
The target in series [18] is T1, Non-receptor tyrosine-protein kinase TYK2. Kind of series: Inhibition of TYK2 JH2 (unknown origin) by morrison titration assay. As to conditions: read-out: Ki(app).
The target of series [19] is Voltage-gated inwardly rectifying potassium channel KCNH2 (Homo sapiens, UniProt Q12809). The series is described as follows: Inhibition of human ERG by patch clamp assay.
For series [20], the target named is JAK2/TYK2 (Homo sapiens, UniProt O60674+P29597). Kind of series: Inhibition of TYK2/JAK2 in IL23-stimulated human Kit225 cells by steady-glo luciferase assay.
The target of series [21] is JAK3/JAK1 (Homo sapiens, UniProt P23458+P52333). Kind of series: Inhibition of JAK1/JAK3 (unknown origin) in IL-2 stimulated cells by cell based assay.
Series [22] has as its target JAK2/JAK1 (Homo sapiens, UniProt O60674+P23458). The series is described as follows: Inhibition of JAK1/JAK2 (unknown origin) in GM-CSF stimulated cells by cell based assay.
For series [23], the target named is 3',5'-cyclic-AMP phosphodiesterase 4D (Homo sapiens, UniProt Q08499). Kind of series: Inhibition of [3H]cAMP binding to recombinant human His-Tb fused PDE4D2 (86 to 413 residues) expressed in Escherichia coli using [3H]cAMP as substrate preincubated for 10 mins followed by [3H]cAMP addition and measured after 1 hr by scintillation proximity assay.
Series [24] is described as follows: Metabolic stability in human liver microsomes assessed as parent compound remaining after 10 mins. It is filed as ADME, Microsome. As to conditions: read-out: Stability.
The nature of series [25]: Metabolic stability in rat liver microsomes assessed as parent compound remaining after 10 mins. As to conditions: read-out: Stability. Type of series: ADME, Microsome.
Series [26] in a line: Metabolic stability in mouse liver microsomes assessed as parent compound remaining after 10 mins. It is filed as ADME, Microsome. As to conditions: read-out: Stability.
Series [27] is described as follows: Protein binding in human plasma assessed as unbound fraction. It is filed as ADME, cell-free.
Series [28] is described as follows: Cmax in mouse at 10 mg/kg, po. It is filed as ADME, organism-based. Details: dose 10 mg/kg, route oral. To be noted: in vivo.
Series [29] in a line: AUClast in mouse at 10 mg/kg, po. It is filed as ADME, organism-based. Set-up: dose 10 mg/kg, route oral, time 0 - last. To be noted: in vivo.
Series [30] concerns Mus musculus. The series is described as follows: Antiinflammatory activity in po dosed B6 CB17 mouse model of CD40-induced colitis assessed as inhibition of body weight loss administered twice daily as nanosuspension. Type of series: functional, organism-based. As to conditions: tested as the 2H-labelled form.
Series [31] has as its system Mus musculus. The series is described as follows: Antiinflammatory activity in B6 CB17 mouse model of CD40-induced colitis assessed as reduction in colitis severity at 250 mg/kg, po BID administered as nanosuspension. It is filed as functional, organism-based. To be noted: tested as the 2H-labelled form.
Series [32] deals with Mus musculus. Kind of series: Inhibition of IL12/IL18-induced IFNgamma production in po dosed C57BL/6 mouse pretreated for 1 hr followed by IL12 stimulation and subsequent IL18 addition and measured after 3 hrs. It is filed as functional, organism-based. To be noted: tested as the 2H-labelled form.
The test system of series [33] is Mus musculus. Kind of series: Antiinflammatory activity in B6 CB17 mouse model of CD40-induced colitis assessed as reduction in inflammation at 250 mg/kg, po BID administered as nanosuspension. It is filed as functional, organism-based. To be noted: tested as the 2H-labelled form.
The subject of series [34] is Mus musculus. Kind of series: Antiinflammatory activity in B6 CB17 mouse model of CD40-induced colitis assessed as reduction in colitis damage at 250 mg/kg, po BID administered as nanosuspension. It is filed as functional, organism-based. To be noted: tested as the 2H-labelled form.
Series [35] concerns the target T1, Non-receptor tyrosine-protein kinase TYK2. Kind of series: Inhibition of TYK2 JH2 (unknown origin) by Scintillation proximity assay.
Series [36] concerns the target T2, Inhibitor of nuclear factor kappa-B kinase subunit beta (Homo sapiens) (UniProt O14920).
T2 sequence (whole entry): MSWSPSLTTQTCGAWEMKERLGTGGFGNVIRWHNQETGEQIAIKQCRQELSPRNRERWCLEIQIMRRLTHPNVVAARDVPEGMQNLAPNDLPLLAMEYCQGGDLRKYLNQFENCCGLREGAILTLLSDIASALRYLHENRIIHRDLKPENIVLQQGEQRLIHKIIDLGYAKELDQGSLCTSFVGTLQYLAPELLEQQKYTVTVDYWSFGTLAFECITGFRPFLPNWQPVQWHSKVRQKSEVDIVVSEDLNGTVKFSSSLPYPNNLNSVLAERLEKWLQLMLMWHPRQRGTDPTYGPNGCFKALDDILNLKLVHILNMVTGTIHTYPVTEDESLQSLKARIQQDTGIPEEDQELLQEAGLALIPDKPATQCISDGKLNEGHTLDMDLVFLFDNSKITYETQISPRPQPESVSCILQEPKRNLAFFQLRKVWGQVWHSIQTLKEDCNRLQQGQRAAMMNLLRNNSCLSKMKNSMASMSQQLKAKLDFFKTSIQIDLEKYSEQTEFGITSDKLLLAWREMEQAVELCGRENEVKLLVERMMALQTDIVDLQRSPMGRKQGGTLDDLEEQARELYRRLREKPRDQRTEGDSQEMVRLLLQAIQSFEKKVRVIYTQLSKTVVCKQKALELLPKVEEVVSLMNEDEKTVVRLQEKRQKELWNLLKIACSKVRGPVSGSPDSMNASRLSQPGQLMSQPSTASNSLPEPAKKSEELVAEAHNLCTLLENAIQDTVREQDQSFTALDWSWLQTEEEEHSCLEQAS
Kind of series: Inhibition of IKKbeta (unknown origin).

Series [37] can be described thus: Metabolic stability in pooled human liver microsomes at 0.5 uM after 10 mins by UV based analysis. To be noted: read-out: Stability. It is filed as ADME, Microsome.
Series [38] in a line: Metabolic stability in pooled mouse liver microsomes at 0.5 uM after 10 mins by UV based analysis. Type of series: ADME, Microsome. As to conditions: read-out: Stability.

JAK1/TYK2, sequence (P23458 whole entry, the tested form may be a part): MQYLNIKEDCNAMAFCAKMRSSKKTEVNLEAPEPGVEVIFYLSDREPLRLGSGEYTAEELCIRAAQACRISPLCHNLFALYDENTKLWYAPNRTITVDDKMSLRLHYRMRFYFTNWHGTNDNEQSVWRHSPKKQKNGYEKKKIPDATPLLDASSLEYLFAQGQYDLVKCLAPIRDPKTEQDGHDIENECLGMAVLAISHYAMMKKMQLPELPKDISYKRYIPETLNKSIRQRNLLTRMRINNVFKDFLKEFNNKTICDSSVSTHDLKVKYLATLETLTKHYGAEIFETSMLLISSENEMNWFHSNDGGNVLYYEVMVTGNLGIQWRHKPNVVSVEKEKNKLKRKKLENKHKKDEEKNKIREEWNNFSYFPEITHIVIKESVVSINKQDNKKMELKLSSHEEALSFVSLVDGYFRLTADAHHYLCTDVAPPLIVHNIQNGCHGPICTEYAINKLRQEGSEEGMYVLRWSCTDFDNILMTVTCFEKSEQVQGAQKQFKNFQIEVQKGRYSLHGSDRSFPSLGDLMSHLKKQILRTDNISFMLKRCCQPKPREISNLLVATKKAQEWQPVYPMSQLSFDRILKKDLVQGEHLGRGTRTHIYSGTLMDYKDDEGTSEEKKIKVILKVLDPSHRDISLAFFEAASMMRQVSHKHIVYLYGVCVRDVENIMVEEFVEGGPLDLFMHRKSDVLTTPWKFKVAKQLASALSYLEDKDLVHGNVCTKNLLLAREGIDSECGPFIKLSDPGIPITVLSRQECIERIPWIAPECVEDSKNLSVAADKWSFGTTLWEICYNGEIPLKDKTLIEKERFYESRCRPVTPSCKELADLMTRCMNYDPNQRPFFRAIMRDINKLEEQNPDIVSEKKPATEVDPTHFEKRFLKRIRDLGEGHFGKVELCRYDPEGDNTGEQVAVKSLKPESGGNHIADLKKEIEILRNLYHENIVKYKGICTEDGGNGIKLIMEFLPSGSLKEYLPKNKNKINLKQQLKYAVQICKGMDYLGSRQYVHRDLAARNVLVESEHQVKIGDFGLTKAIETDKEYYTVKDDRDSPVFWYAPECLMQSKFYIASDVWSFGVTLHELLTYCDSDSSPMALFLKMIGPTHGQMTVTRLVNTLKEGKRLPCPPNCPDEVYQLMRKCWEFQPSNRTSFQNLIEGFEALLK
JAK1/TYK2, sequence (P29597 whole entry, the tested form may be a part): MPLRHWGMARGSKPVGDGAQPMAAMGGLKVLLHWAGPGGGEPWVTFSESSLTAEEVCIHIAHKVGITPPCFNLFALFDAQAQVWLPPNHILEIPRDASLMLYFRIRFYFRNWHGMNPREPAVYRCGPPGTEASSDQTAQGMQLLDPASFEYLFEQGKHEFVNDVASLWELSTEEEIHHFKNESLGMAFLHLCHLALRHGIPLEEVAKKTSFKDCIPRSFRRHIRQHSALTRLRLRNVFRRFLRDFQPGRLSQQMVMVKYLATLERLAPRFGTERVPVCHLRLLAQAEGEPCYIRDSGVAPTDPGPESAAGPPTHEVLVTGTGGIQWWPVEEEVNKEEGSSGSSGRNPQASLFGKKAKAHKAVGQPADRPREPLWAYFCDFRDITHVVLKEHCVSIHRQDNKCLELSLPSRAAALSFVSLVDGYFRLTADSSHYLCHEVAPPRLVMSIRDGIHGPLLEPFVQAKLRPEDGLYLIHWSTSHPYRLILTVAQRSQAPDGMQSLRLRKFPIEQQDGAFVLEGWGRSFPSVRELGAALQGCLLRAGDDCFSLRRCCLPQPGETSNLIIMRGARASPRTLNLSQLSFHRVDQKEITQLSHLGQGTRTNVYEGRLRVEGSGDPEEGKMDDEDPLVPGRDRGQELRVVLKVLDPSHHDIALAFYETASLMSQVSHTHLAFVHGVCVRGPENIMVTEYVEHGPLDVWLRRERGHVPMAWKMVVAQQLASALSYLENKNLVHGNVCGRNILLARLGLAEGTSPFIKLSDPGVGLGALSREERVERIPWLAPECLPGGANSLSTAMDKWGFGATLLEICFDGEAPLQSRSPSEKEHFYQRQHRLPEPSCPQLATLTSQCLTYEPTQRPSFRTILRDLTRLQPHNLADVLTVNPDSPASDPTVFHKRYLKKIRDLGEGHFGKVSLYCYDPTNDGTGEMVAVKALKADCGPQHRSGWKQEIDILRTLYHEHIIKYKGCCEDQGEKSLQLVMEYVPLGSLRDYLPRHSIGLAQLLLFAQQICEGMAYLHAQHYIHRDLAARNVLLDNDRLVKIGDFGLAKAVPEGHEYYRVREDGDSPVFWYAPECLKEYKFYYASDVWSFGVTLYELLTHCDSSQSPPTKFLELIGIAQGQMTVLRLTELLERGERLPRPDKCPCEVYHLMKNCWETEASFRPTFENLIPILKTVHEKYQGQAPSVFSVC
Tyrosine-protein kinase JAK1, sequence (P23458 whole entry, the tested form may be a part): as the sequence (P23458 whole entry, the tested form may be a part) above
JAK2/TYK2, sequence (O60674 whole entry): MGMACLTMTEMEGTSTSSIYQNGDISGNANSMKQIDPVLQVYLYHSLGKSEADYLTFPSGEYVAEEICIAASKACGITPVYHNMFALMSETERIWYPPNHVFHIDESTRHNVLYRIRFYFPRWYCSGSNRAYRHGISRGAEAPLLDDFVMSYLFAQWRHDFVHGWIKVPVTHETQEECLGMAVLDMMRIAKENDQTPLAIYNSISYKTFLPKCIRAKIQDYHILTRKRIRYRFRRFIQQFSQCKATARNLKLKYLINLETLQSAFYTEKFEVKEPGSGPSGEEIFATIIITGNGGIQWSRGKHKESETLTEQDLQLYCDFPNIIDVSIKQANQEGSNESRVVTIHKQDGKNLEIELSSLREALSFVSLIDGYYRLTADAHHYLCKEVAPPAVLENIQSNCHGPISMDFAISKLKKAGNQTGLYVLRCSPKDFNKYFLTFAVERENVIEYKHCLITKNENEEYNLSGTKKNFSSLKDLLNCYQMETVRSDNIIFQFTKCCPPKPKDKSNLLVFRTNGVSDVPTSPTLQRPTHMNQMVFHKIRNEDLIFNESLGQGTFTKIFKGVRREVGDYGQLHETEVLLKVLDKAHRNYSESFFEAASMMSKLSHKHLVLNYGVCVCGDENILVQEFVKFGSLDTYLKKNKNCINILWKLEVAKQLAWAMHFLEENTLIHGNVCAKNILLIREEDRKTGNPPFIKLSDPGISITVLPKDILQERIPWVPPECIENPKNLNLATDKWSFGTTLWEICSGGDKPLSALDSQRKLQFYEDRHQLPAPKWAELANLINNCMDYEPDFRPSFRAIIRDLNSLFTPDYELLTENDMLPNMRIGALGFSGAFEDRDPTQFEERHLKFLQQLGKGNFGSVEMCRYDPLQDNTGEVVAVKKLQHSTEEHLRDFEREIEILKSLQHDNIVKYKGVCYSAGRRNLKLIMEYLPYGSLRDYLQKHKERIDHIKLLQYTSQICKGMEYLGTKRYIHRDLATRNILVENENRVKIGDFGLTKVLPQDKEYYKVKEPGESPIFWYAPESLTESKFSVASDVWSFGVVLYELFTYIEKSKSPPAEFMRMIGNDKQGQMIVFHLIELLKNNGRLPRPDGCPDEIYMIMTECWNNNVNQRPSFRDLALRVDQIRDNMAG
JAK2/TYK2, sequence (P29597 whole entry): as the sequence (P29597 whole entry, the tested form may be a part) above
Tyrosine-protein kinase JAK2, sequence (O60674 whole entry, the tested form may be a part): as the sequence (O60674 whole entry) above
T1 sequence (P29597 whole entry, the tested form may be a part): as the sequence (P29597 whole entry, the tested form may be a part) above
JAK2/JAK1, sequence (P23458 whole entry, the tested form may be a part): as the sequence (P23458 whole entry, the tested form may be a part) above
JAK2/JAK1, sequence (O60674 whole entry, the tested form may be a part): as the sequence (O60674 whole entry) above
JAK3/JAK1, sequence (P52333 whole entry): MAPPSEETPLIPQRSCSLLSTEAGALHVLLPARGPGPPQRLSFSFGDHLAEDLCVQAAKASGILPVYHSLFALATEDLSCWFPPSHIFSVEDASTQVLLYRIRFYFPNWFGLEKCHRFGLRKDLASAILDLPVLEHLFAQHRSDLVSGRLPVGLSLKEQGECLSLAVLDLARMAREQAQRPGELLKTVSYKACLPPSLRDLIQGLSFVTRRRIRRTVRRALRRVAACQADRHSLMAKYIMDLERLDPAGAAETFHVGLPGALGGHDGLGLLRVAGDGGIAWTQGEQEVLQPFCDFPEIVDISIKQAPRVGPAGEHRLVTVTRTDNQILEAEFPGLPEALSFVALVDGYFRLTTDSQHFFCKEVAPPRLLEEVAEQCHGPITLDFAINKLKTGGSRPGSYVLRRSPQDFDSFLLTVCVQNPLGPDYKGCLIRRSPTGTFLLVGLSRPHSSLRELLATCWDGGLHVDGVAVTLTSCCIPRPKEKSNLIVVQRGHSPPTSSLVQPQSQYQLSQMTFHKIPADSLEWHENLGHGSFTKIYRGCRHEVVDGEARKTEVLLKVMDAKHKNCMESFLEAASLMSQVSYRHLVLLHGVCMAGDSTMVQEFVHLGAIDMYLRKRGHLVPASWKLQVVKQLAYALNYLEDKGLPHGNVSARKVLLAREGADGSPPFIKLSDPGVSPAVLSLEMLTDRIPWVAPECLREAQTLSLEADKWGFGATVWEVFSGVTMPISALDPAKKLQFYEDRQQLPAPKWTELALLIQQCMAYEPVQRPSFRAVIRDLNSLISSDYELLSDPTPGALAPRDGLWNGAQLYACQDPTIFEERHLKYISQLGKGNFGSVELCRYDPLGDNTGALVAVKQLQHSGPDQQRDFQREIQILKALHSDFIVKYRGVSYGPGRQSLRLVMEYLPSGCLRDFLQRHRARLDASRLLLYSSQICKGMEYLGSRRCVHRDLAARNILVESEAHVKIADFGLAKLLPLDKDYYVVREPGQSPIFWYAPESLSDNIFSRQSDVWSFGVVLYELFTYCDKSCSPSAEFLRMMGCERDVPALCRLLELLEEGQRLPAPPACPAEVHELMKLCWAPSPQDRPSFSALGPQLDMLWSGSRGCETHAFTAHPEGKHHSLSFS
JAK3/JAK1, sequence (P23458 whole entry): as the sequence (P23458 whole entry, the tested form may be a part) above

Consider `[2H]C([2H])([2H])NC(=O)c1nnc(NC(=O)C2CC2)cc1Nc1ccccc1S(C)(=O)=O`, for which the IC50 is 1.3 nM in [1]; 50000 nM in series [2]; more than 2000 nM in series [3]; more than 50000 nM in [4]; 1.3 nM in series [5]; 230 nM in series [6]. Besides, the half-maximal inhibitory concentration (IC50) was 340 nM in series [9] and more than 30000 nM in series [19]. Also, the Papp A→B in series [7] worked out at 6.9 ×10⁻⁶ cm/s. In [8], the efflux ratio is 7.7. The half-life in series [10] came out at 1.83 h; in series [11], 1.35 h; in [12], 0.8 h; in series [13], 1.12 h; in series [14], 1.25 h. The logP in [15] turned out to be 2.03. For the same compound, the peak level in [16] (Cmax) was 3420 nM. Further, the AUC(0-t) at 7 h in series [17] was found to be 6.61 µM·h. The Ki in [18] came out at 0.8 nM.
Consider `CNC(=O)c1cnc(Nc2ccc(F)cn2)cc1Nc1ccccc1C(N)=O`, for which the IC50 in [1] was 1.3 nM; in series [2] it was more than 2000 nM; in series [3], more than 2000 nM; in [4], more than 2000 nM; in series [20], 660 nM; in series [5], 320 nM. The IC50 in [21] is more than 12500 nM; in series [22], more than 12500 nM; in series [6], 530 nM; in series [23], 10400 nM. Besides, the Papp A→B in series [7] was less than 1.5 ×10⁻⁶ cm/s. In [8], the efflux ratio was more than 35. For the same compound, the remaining at 10 min in series [24] stood at 94%; in [25] it was 83%; in series [26] it was 82%. In series [27], the fraction unbound was 0.263. In series [28], the peak level (Cmax) was 36 nM. The AUC(0-t) in series [29] worked out at 0.15 µM·h.
With `CNC(=O)c1cnc(Nc2ccc(F)cn2)cc1Nc1ccc(F)c(F)c1OC`, the IC50 in series [1] was 1.5 nM; in series [20], 380 nM; in [5], 220 nM; in series [6] it was 2400 nM; in series [23], 7400 nM. The Papp A→B in series [7] came out at 4.1 ×10⁻⁶ cm/s. In addition, the efflux ratio in [8] came to 0.5. For the same compound, the remaining at 10 min came to 57% in series [24], 73% in [25] and 58% in [26]. The highest level in series [28] (Cmax) was 1600 nM. Moreover, the AUC(0-t) in series [29] was 4 µM·h.
As to `CNC(=O)c1nnc(Nc2ccccn2)cc1Nc1ccccc1S(C)(=O)=O`, the inhibition entry in [30] and in series [32] was “Dose-dependent effect” each time. Moreover, the result in series [31], in series [33] and in [34] was Active.
With `NC(=O)c1ccccc1Nc1cc(Nc2ccc(F)cn2)ncc1C(N)=O`, the IC50 came to 0.46 nM in [1]; 15 nM in series [2]; 26 nM in [3]; 24 nM in series [4]; 89 nM in [20]; 37 nM in [5]. The figures for the IC50 in [21] and in [22] were 400 nM and 210 nM, respectively. The compound further gave an EC50 in series [35] of 6.6 nM. Moreover, in series [18], the Ki was 0.06 nM. Besides, the inhibition entry in series [36] is “inactive”. Moreover, the remaining at 10 min, 0.5 µM in series [37] and in [38] was more than 80% each time.
